Measurements: patent US20080241904A1, “PROCESS FOR PRODUCING ISOMALTOSE AND USES THEREOF” (KABUSHIKI KAISHA HAYASHIBARA SEIBUTSU KAGAKU KENKYUJO, priority 2001, published 2008)

Key:
[1] = system: α-isomaltosylglucosaccharide-forming enzyme from Bacillus globisporus C11 strain; assay: Specificity of saccharide transferring reaction acceptor, enzyme of Strain C11; assay type: biochemical; parameters: key: −: no saccharide-transferred product was detected through transferring reaction to acceptor; ±: a saccharide-transferred product was detected in an amount of less than one percent through transfer reaction to acceptor; +: a saccharide-transferred product was detected in an amount of at least one percent but less than ten percent through transferring reaction to acceptor; ++: a saccharide-transferred product was detected in an amount of at least ten percent through transferring reaction to acceptor; settings: 1.6% acceptor, 4% PINE-DEX #100 as donor, one unit/g donor, 30° C., pH 6.0, 24 hours; GLC or HPLC
Experimental: (§1) Using different saccharides, it was tested whether the saccharides were used as saccharide transferring reaction acceptors for the α-isomaltosylglucosaccharide-forming enzyme. A 1.6% solution, as a solution of saccharide transferring reaction acceptor, of D-glucose, D-xylose, L-xylose, D-galactose, D-fructose, D-mannose, D-arabinose, D-fucose, L-sorbose, L-rhamnose, methyl-α-glucopyranoside (methyl-α-glucose), methyl-β-glucopyranoside ([…]), N-acetyl-glucosamine, sorbitol, α,α-trehalose, isomaltose, isomaltotriose, cellobiose, gentibiose, maltitol, lactose, sucrose, α-cyclodextrin, β-cyclodextrin, or γ-cyclodextrin, was prepared. To each solution with a saccharide concentration was added “PINE-DEX #100”, a partial starch hydrolysate, as a saccharide donor, to give a concentration of 4%, and admixed with one unit/g saccharide donor, d.s.b., of either of purified specimens of α-isomaltosylglucosaccharide-forming enzyme from Bacillus globisporus C9 strain obtained by the method in Experiment 2-1, Bacillus globisporus C11 strain obtained by the method in Experiment 4-1. The resulting mixture solutions were incubated at 30° C. and pH 6.0 except that the enzyme from Arthrobacter globiformis A19 strain was incubated at pH 8.4 for 24 hours. The reaction mixtures of the post-enzymatic reactions were analyzed on gas chromatography (abbreviated as “GLC” hereinafter) for monosaccharides and disaccharides as acceptors, and on HPLC for trisaccharides as acceptors to confirm whether these saccharides could be used as their saccharide transferring reaction acceptors. In the case of performing GLC, the following apparatuses and conditions are used: GLC apparatus, “GC-16A” commercialized by Shimadzu Corporation, Tokyo, Japan; column, a stainless-steel column, 3 mm in diameter and 2 m in length, packed with 2% “SILICONE OV-17/CHROMOSOLV W”, commercialized by GL Sciences Inc., Tokyo, Japan; carrier gas, nitrogen gas at a flow rate of 40 ml/min under temperature conditions of increasing from 160° C. to 320° C. at an increasing temperature rate of 7.5° C./min; and detection, a hydrogen flame ionization detector.
(§2) In the case of HPLC analysis, the apparatuses and conditions used were: HPLC apparatus, “CCPD” commercialized by Tosoh Corporation, Tokyo, Japan; column, “ODS-AQ-303” commercialized by YMC Co., Ltd., Tokyo, Japan; eluent, water at a flow rate of 0.5 ml/min; and detection, a differential refractometer.

[2] = system: α-isomaltosylglucosaccharide-forming enzyme from Bacillus globisporus C9 strain; assay: Specificity of saccharide transferring reaction acceptor, enzyme of Strain C9; assay type: biochemical; parameters: key: −: no saccharide-transferred product was detected through transferring reaction to acceptor; ±: a saccharide-transferred product was detected in an amount of less than one percent through transfer reaction to acceptor; +: a saccharide-transferred product was detected in an amount of at least one percent but less than ten percent through transferring reaction to acceptor; ++: a saccharide-transferred product was detected in an amount of at least ten percent through transferring reaction to acceptor; settings: 1.6% acceptor, 4% PINE-DEX #100 as donor, one unit/g donor, 30° C., pH 6.0, 24 hours; GLC or HPLC
Experimental: as §1, §2

| Structure (SMILES) | Product of saccharide transferring reaction, Enzyme of Strain C11 [1] | Product of saccharide transferring reaction, Enzyme of Strain C9 [2] |
| --- | --- | --- |
| O=C[C@@H](O)[C@H](O)[C@H](O)CO [D-Arabinose, D-arabinose] | ± (a saccharide-transferred product was detected in an amount of less than one percent through transfer reaction to acceptor) | ± (a saccharide-transferred product was detected in an amount of less than one percent through transfer reaction to acceptor) |
| O=C(CO)[C@@H](O)[C@H](O)[C@H](O)CO [D-Fructose, D-fructose] | + (a saccharide-transferred product was detected in an amount of at least one percent but less than ten percent through transferring reaction to acceptor) | + (a saccharide-transferred product was detected in an amount of at least one percent but less than ten percent through transferring reaction to acceptor) |
| C[C@@H](O)[C@H](O)[C@H](O)[C@@H](O)C=O [D-Fucose, D-fucose] | + (a saccharide-transferred product was detected in an amount of at least one percent but less than ten percent through transferring reaction to acceptor) | + (a saccharide-transferred product was detected in an amount of at least one percent but less than ten percent through transferring reaction to acceptor) |
| O=C[C@H](O)[C@@H](O)[C@@H](O)[C@H](O)CO [D-Galactose, D-galactose] | + (a saccharide-transferred product was detected in an amount of at least one percent but less than ten percent through transferring reaction to acceptor) | + (a saccharide-transferred product was detected in an amount of at least one percent but less than ten percent through transferring reaction to acceptor) |
| O=C[C@H](O)[C@@H](O)[C@H](O)[C@H](O)CO [D-Glucose, D-glucose] | + (a saccharide-transferred product was detected in an amount of at least one percent but less than ten percent through transferring reaction to acceptor) | + (a saccharide-transferred product was detected in an amount of at least one percent but less than ten percent through transferring reaction to acceptor) |
| O=C[C@@H](O)[C@@H](O)[C@H](O)[C@H](O)CO [D-Mannose, D-mannose] | − | − |
| O=C[C@H](O)[C@@H](O)[C@H](O)CO [D-Xylose, D-xylose] | ++ (a saccharide-transferred product was detected in an amount of at least ten percent through transferring reaction to acceptor) | ++ (a saccharide-transferred product was detected in an amount of at least ten percent through transferring reaction to acceptor) |
| C[C@H](O)[C@H](O)[C@@H](O)[C@@H](O)C=O [L-Rhamnose, L-rhamnose] | − | − |
| O=C(CO)[C@@H](O)[C@H](O)[C@@H](O)CO [L-Sorbose, L-sorbose] | + (a saccharide-transferred product was detected in an amount of at least one percent but less than ten percent through transferring reaction to acceptor) | + (a saccharide-transferred product was detected in an amount of at least one percent but less than ten percent through transferring reaction to acceptor) |
| O=C[C@@H](O)[C@H](O)[C@@H](O)CO [L-Xylose, L-xylose] | ++ (a saccharide-transferred product was detected in an amount of at least ten percent through transferring reaction to acceptor) | ++ (a saccharide-transferred product was detected in an amount of at least ten percent through transferring reaction to acceptor) |
| CO[C@H]1O[C@H](CO)[C@@H](O)[C@H](O)[C@H]1O [Methyl-α-glucopyranoside, methyl-α-glucopyranoside] | ++ (a saccharide-transferred product was detected in an amount of at least ten percent through transferring reaction to acceptor) | ++ (a saccharide-transferred product was detected in an amount of at least ten percent through transferring reaction to acceptor) |
| CO[C@@H]1O[C@H](CO)[C@@H](O)[C@H](O)[C@H]1O [Methyl-β-glucopyranoside, methyl-β-glucopyranoside] | ++ (a saccharide-transferred product was detected in an amount of at least ten percent through transferring reaction to acceptor) | ++ (a saccharide-transferred product was detected in an amount of at least ten percent through transferring reaction to acceptor) |
| CC(=O)N[C@H]1C(O)O[C@H](CO)[C@@H](O)[C@@H]1O (stereo partly shown) [N-Acetyl-glucosamine, N-acetyl-glucosamine] | + (a saccharide-transferred product was detected in an amount of at least one percent but less than ten percent through transferring reaction to acceptor) | + (a saccharide-transferred product was detected in an amount of at least one percent but less than ten percent through transferring reaction to acceptor) |
| OC[C@@H](O)[C@@H](O)[C@H](O)[C@@H](O)CO [Sorbitol, sorbitol] | − | − |
| OC[C@H]1O[C@@H]2O[C@H]3[C@H](O)[C@@H](O)[C@@H](O[C@H]4[C@H](O)[C@@H](O)[C@@H](O[C@H]5[C@H](O)[C@@H](O)[C@@H](O[C@H]6[C@H](O)[C@@H](O)[C@@H](O[C@H]7[C@H](O)[C@@H](O)[C@@H](O[C@H]1[C@H](O)[C@H]2O)O[C@@H]7CO)O[C@@H]6CO)O[C@@H]5CO)O[C@@H]4CO)O[C@@H]3CO [α-Cyclodextrin, α-cyclodextrin] | − | − |
| OC[C@H]1O[C@@H]2O[C@H]3[C@H](O)[C@@H](O)[C@@H](O[C@H]4[C@H](O)[C@@H](O)[C@@H](O[C@H]5[C@H](O)[C@@H](O)[C@@H](O[C@H]6[C@H](O)[C@@H](O)[C@@H](O[C@H]7[C@H](O)[C@@H](O)[C@@H](O[C@H]8[C@H](O)[C@@H](O)[C@@H](O[C@H]1[C@H](O)[C@H]2O)O[C@@H]8CO)O[C@@H]7CO)O[C@@H]6CO)O[C@@H]5CO)O[C@@H]4CO)O[C@@H]3CO [β-Cyclodextrin, β-cyclodextrin] | − | − |
| OC[C@H]1O[C@@H]2O[C@H]3[C@H](O)[C@@H](O)[C@@H](O[C@H]4[C@H](O)[C@@H](O)[C@@H](O[C@H]5[C@H](O)[C@@H](O)[C@@H](O[C@H]6[C@H](O)[C@@H](O)[C@@H](O[C@H]7[C@H](O)[C@@H](O)[C@@H](O[C@H]8[C@H](O)[C@@H](O)[C@@H](O[C@H]9[C@H](O)[C@@H](O)[C@@H](O[C@H]1[C@H](O)[C@H]2O)O[C@@H]9CO)O[C@@H]8CO)O[C@@H]7CO)O[C@@H]6CO)O[C@@H]5CO)O[C@@H]4CO)O[C@@H]3CO [γ-Cyclodextrin, γ-cyclodextrin] | − | − |
